Test results reported in paper PMC12677699, “Utilizing Proteolytic‐Resistant Nano‐Short Peptide Based on Naphthyl Tail‐Anchored to Combat Bacterial Infections” (Advanced Science, 2025).

Tests used:
E. coli ATCC 25922 [1] = experiment: Live/dead staining, PI and SYTO 9; type: cell-based, Escherichia coli
Excerpt: (§1) Finally, a fluorescence microscope (EVOS FL Auto, Massachusetts, USA) was used to observe the fluorescence images of the bacteria under different background colors and representative pictures were taken.

MRSA = experiment: MRSA-mediated skin infection model; type: in vivo, mouse; set-up: bacterial load in skin tissue, Day 5 / bacterial load in skin tissue, Day 9: dose or concentration left out as unconfirmed; settings: MRSA wound, n = 8
Excerpt: The mouse skin infection model was based on previous research with some modifications.^[ [62] ^] The mice utilized in the […] were consistent with those employed in the in vivo toxicity assessment. Forty‐eight mice were randomly divided into three groups after a 3‐day pre‐feeding period, including control, N4‐treated and MRSA‐infected groups. Initially, the dorsal regions of the mice were depilated (Day ‐1). On the following day (Day 0), circular incisions were made on the dorsal surfaces, and 10 µL of saline‐diluted MRSA suspension (OD600 = 0.2) was applied to the wounds of the mice in N4‐treated and MRSA‐infected groups, while an equivalent volume of saline was administered to the wounds in the control mice. […] The above treatments were repeated after […] (Day 3). Throughout the experimental period, representative images of the wounds were captured.
Mice were euthanized on Days 5 and 9 post‐infection, and skin tissue homogenates were quantified for bacterial load. Subsequently, the supernatants of skin tissue homogenates from mice on Day 9 were selected for the detection of inflammatory factors, and wound tissues were collected for histological, Masson and immunofluorescence analyses.

E. coli ATCC 25922 [2] = experiment: Drug resistance assay, 30 serial passages; type: cell-based, Escherichia coli; settings: E. coli ATCC 25922, 30 successive passages at sub-MIC concentrations
Method: (§2) The potential resistance development of nano‐short peptides was evaluated through 30 serial passages of E. coli ATCC 25922 and S. aureus ATCC 29213 in sub‐MIC conditions,^[ [38] ^] using gentamicin as control.

S. aureus ATCC 29213 [3] = experiment: Time-kill kinetics; type: cell-based, Staphylococcus aureus; settings: PBS pH 7.4, n = 3
Method: (§3) Samples were collected at pre‐determined time points post‐exposure, serially diluted, and plated on Mueller‐Hinton agar (MHA) for viable colony counting after 18–24 h incubation at 37 °C. Untreated bacterial suspensions served as controls.

E. coli ATCC 25922 [4] = experiment: Cytoplasmic membrane permeability, ONPG hydrolysis; type: cell-based, Escherichia coli; settings: within 1800 s
Excerpt: The ONPG hydrolysis assay was employed to determine the effects of nano‐short peptides on permeability of E. coli ATCC 25922 cytoplasmic membranes. The detailed experimental procedures followed the previously published methodology.^[ [30] ^]

E. coli = experiment: In vivo peritonitis-sepsis model; set-up: species or system mouse; settings: 14 h, n = 8
Method: The mice used in the peritonitis‐sepsis model were consistent with those employed in the in vivo toxicity assessment. Twenty‐four mice were randomly divided into three groups after a 3‐day pre‐feeding period. The mice in the control group received intraperitoneal injections of 100 µL of saline, followed by an additional 100 µL of saline 1 h later. The mice in the other two groups were administered intraperitoneal injections of 100 µL of a saline‐diluted E. coli suspension (OD600 = 0.6), and subsequently received either 100 µL of saline (E. coli‐infected group) or 10 mg kg^−1 of N4(N4‐treated group) 1 h later. 14 h post‐infection, the mice were euthanized via ether inhalation anesthesia, and blood samples were collected from the orbital vein for the analysis of inflammatory factors (IL‐1β, IL‐6, TNF‐α, and IL‐10).^[ [71] ^] In addition, peritoneal fluid was aseptically collected via peritoneal lavage with sterile saline. The liver, spleen, and kidneys were harvested, weighed, and homogenized. Homogenized samples were plated on Mueller‐Hinton agar (MHA) solid medium for overnight incubation, and bacterial load was quantified the next day. Sections of the liver, spleen, and kidneys were obtained for histological analysis employing H&E staining. Besides, the spleens were specifically selected for immunofluorescence analysis to assess the expression levels of IL‐10, TNF‐α, CD206, and CD86.

ThT fluorescence assay = type: physicochemical; settings: 16 × 10^−6 M N4, ThT 40 × 10^−6 M, deionized water, 20 min, 37 °C
Method: The fluorescent dye was used for fluorescence measurements and imaging of N4. ^[ [48] ^] […] An equal volume of ThT solution was added to each well (final concentration: 40 × 10^−6 M), with ThT in deionized water serving as the control. After 20 min incubation at 37 °C, fluorescence intensity was measured using a microplate reader (excitation λ = 450 nm, emission λ = 480 nm). N4 was stained with 40 × 10^−6 M ThT for 30 min and observed by imaging using a fluorescence microscope.

S. aureus ATCC 29213 [5] = experiment: Flow cytometry, PI; type: cell-based, Staphylococcus aureus; settings: 16 × 10^−6 M N4, 1 h, control 1.23%
Method: The bacterial samples were incubated with N4 for 1 h and then incubated with the PI dye (at a final concentration of 10 µg mL^−1) for a further 15 min. Finally, bacteria containing PI dye were detected by FACScan flow cytometer at 488 nm excitation wavelength, bacterial solutions (containing PI dye) without N4 treatment were used as controls.

E. coli ATCC 25922 [6] = experiment: Time-kill kinetics; type: cell-based, Escherichia coli; settings: 1 × MIC, PBS pH 7.4; n = 3
Method: as §3

S. aureus ATCC 29213 [7] = experiment: Live/dead staining, PI and SYTO 9; type: cell-based, Staphylococcus aureus
Excerpt: as §1

S. aureus ATCC 29213 [8] = experiment: Drug resistance assay, 30 serial passages; type: cell-based, Staphylococcus aureus; settings: S. aureus ATCC 29213, 30 successive passages at sub-MIC concentrations; gentamicin by day 17
Method: as §2

[9] = Day 9, vs infected group, p < 0.05
[10] = N4 10 mg kg^−1 i.p., vs infected group, p < 0.05

N=C(N)NCCC[C@H](NC(=O)[C@@H](CCCNC(=N)N)NC(=O)[C@H](Cc1cccc2ccccc12)NC(=O)[C@H](Cc1cccc2ccccc12)NC(=O)[C@H](Cc1cccc2ccccc12)NC(=O)[C@@H](N)Cc1cccc2ccccc12)C(=O)N[C@@H](CCCNC(=N)N)C(=O)N1CCC[C@H]1C(=O)O (stereo in doubt) [Peptide N4]
red (PI)/green (SYTO 9) fluorescence overlap rate (E. coli ATCC 25922 [1]; 16 × 10^−6 M N4, E. coli ATCC 25922, ImageJ): 79.11%
red (PI)/green (SYTO 9) fluorescence overlap rate (E. coli ATCC 25922 [1]; 256 × 10^−6 M N4, E. coli ATCC 25922, ImageJ): 99.29%
bacterial load in skin tissue, Day 9 (MRSA; 10 µL of N4, twice a day on Day 1 and Day 3, topical, infected group 6.89): 6.12 log10 CFU g^−1
bacterial load in skin tissue, Day 5 (MRSA; 10 µL of N4, twice a day on Day 1 and Day 3, topical, infected group 7.1): 6.59 log10 CFU g^−1
anti-inflammatory cytokine IL-10 in supernatant of skin tissues (MRSA; [9]): significant increase
pro-inflammatory cytokines (IL-1β, IL-6, TNF-α) in supernatant of skin tissues (MRSA; [9]): significant decrease
increase in MIC values after serial passage (E. coli ATCC 25922 [2]): remained largely unchanged
time to eliminate all S. aureus ATCC 29213 cells (S. aureus ATCC 29213 [3]; 1 × MIC): ≤ 3000 s
time to eliminate all S. aureus ATCC 29213 cells (S. aureus ATCC 29213 [3]; 4 × MIC): ≤ 1200 s
increase in absorbance at 420 nm (ONPG hydrolysis) (E. coli ATCC 25922 [4]; 8 μM): approximately 2 fold
increase in absorbance at 420 nm (ONPG hydrolysis) (E. coli ATCC 25922 [4]; 16 μM): ~5 fold
bacterial load, kidney (E. coli; E. coli peritonitis-sepsis, N4 10 mg kg^−1 i.p. 1 h after infection, infected group 6.62): 5.96 log10 CFU g^−1
bacterial load, liver (E. coli; E. coli peritonitis-sepsis, N4 10 mg kg^−1 i.p. 1 h after infection, infected group 6.87): 6.07 log10 CFU g^−1
bacterial load, spleen (E. coli; E. coli peritonitis-sepsis, N4 10 mg kg^−1 i.p. 1 h after infection, infected group 6.97): 6.28 log10 CFU g^−1
bacterial load, peritoneum (E. coli; E. coli peritonitis-sepsis, N4 10 mg kg^−1 i.p. 1 h after infection, infected group 7.48): 6.37 log10 CFU
serum levels of anti-inflammatory cytokine IL-10 (E. coli; [10]): increased
serum levels of pro-inflammatory cytokines (IL-1β, IL-6, TNF-α) (E. coli; [10]): significant decreased
ThT fluorescence intensity (ThT fluorescence assay): significant increase
PI-positive proportion (S. aureus ATCC 29213 [5]): 36.7%
time to eliminate all E. coli ATCC 25922 cells (E. coli ATCC 25922 [6]): ≤ 1500 s
red (PI)/green (SYTO 9) fluorescence overlap rate (S. aureus ATCC 29213 [7]; 16 × 10^−6 M N4, S. aureus ATCC 29213, ImageJ): 90.74%
red (PI)/green (SYTO 9) fluorescence overlap rate (S. aureus ATCC 29213 [7]; 256 × 10^−6 M N4, S. aureus ATCC 29213, ImageJ): 98.65%
increase in MIC values after serial passage (S. aureus ATCC 29213 [8]): remained largely unchanged
